In brackets after ≈: the same amount, converted by molar mass. Where two headings read alike, the source gives them in different places.
Columns and labels:
human (hACC2) = human (hACC2) (Homo sapiens, UniProt O00763); test: In vitro ACC inhibition assay (ADP-Glo), hACC2; assay type: biochemical; conditions: 5 nM ACC2, 20 μM ATP, 20 μM acetyl-CoA
Procedure: The detailed procedure is as follows. […] 10 μL ADP glo reagent was added. […] 20 μL kinase detection reagent was added.

C. albicans = test: Antifungal Activity Assay (broth microtiter MIC), C. albicans; assay type: cell-based, Candida albicans; conditions: Candida albicans, ATCC90028, 48 h
How it was run: (§1)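 MIC read by eye at 48 h, comparing challenged wells with the growth control. Yeasts grown overnight on Sabouraud dextrose agar at 35° C, suspended in RPMI 1640+MOPS and added at 2.5×10^3 CFU/mL final, following CLSI M27-A3.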

C. krusei = test: Antifungal Activity Assay (broth microtiter MIC), C. krusei; assay type: cell-based, Candida krusei; conditions: Pichia kudriavzevii, ATCC6258, 48 h
How it was run: as §1

C. parapsilosis = test: Antifungal Activity Assay (broth microtiter MIC), C. parapsilosis; assay type: cell-based, Candida parapsilosis; conditions: Lodderomyces parapsilosis, ATCC22019, 48 h
How it was run: as §1

fungal (fACC2) = fungal (fACC2) (UniProt Q00955); conditions: read-out: fACC2 (in vitro ACC2 Inhibition Assay, IC50), ADP-Glo, 5 nM ACC2, 20 μM ATP, 20 μM acetyl-CoA
[1] = Table 3a, ATCC 90028, 3 replicates, MIC recorded at 48 h, read-out: MIC, C. albicans ATCC 90028
[2] = Table 3b (additional results), ATCC 90028, 3 replicates, MIC recorded at 48 h, read-out: MIC, C. albicans ATCC 90028
[3] = Table 3a, ATCC 6258, 3 replicates, MIC recorded at 48 h, read-out: MIC, C. krusei ATCC 6258
[4] = Table 3b (additional results), ATCC 6258, 3 replicates, MIC recorded at 48 h, read-out: MIC, C. krusei ATCC 6258
[5] = Table 3a, ATCC 22019, 3 replicates, MIC recorded at 48 h, read-out: MIC, C. parapsilosis ATCC 22019
[6] = Table 3b (additional results), ATCC 22019, 3 replicates, MIC recorded at 48 h, read-out: MIC, C. parapsilosis ATCC 22019
[7] = read-out: MIC, C. albicans ATCC 90028, Table 3b (additional results), 3 replicates, MIC recorded at 48 h
[8] = read-out: MIC, C. krusei ATCC 6258, Table 3b (additional results), 3 replicates, MIC recorded at 48 h
[9] = read-out: MIC, C. parapsilosis ATCC 22019, Table 3b (additional results), 3 replicates, MIC recorded at 48 h

Sequence of human (hACC2) (O00763 whole entry): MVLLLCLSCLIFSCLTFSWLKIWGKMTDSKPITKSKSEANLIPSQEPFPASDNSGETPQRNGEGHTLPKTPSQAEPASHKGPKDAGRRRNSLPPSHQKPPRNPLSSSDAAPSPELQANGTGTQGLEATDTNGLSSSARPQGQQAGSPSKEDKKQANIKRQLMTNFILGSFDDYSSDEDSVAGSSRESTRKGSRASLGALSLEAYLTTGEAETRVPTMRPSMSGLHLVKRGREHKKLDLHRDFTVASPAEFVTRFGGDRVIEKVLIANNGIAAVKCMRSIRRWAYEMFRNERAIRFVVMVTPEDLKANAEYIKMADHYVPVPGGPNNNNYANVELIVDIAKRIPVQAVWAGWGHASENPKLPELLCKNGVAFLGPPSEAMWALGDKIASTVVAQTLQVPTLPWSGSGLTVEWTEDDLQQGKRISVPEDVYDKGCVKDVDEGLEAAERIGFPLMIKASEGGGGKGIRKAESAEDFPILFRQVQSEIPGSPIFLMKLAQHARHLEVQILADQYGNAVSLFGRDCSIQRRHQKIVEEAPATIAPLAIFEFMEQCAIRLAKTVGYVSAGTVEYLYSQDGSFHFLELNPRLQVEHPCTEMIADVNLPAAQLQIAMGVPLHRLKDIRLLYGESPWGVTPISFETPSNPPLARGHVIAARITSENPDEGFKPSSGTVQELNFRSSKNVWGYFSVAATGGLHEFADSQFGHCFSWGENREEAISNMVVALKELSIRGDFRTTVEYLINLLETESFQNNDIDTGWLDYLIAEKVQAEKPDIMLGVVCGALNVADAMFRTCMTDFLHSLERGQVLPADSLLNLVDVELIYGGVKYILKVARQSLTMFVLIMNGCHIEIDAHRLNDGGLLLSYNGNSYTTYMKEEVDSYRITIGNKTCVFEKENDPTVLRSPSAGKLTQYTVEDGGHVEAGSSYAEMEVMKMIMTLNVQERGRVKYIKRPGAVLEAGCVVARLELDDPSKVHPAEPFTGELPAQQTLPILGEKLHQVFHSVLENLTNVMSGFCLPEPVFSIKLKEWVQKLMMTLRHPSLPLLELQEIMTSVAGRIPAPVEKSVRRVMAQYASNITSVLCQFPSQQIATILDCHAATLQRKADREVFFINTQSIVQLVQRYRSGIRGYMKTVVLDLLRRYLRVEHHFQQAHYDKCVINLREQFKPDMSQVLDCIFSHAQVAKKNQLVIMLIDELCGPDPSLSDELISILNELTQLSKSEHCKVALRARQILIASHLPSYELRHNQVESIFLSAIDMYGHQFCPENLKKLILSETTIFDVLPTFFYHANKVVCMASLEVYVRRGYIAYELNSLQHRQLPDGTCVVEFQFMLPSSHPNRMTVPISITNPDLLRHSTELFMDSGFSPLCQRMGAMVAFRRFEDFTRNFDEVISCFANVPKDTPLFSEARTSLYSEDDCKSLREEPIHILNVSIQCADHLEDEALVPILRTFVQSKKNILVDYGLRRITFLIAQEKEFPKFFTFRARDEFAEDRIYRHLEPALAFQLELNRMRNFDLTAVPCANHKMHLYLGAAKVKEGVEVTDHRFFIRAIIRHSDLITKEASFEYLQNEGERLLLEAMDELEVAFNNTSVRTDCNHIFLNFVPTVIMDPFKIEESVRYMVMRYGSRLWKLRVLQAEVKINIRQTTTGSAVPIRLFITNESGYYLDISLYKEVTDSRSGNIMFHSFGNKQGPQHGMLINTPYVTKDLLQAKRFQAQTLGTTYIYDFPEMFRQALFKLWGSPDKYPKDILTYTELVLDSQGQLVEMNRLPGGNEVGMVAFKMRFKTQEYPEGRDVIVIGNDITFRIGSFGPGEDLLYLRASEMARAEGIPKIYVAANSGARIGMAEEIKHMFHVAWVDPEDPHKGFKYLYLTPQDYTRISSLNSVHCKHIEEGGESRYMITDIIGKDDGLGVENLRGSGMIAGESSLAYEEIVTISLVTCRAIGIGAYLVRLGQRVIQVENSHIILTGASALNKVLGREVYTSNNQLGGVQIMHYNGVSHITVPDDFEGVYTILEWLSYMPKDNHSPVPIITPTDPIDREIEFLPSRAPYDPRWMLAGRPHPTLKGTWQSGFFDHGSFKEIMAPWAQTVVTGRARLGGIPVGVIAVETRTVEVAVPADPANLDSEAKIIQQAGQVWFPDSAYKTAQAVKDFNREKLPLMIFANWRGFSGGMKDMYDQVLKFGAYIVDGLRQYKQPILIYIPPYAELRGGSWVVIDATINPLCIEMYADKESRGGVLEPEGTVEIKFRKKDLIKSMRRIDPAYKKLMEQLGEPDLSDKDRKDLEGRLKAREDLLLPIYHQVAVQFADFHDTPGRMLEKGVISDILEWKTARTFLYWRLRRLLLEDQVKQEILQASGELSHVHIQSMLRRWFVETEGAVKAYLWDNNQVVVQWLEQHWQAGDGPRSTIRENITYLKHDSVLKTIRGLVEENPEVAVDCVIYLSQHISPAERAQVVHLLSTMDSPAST
Sequence of fungal (fACC2) (Q00955 whole entry): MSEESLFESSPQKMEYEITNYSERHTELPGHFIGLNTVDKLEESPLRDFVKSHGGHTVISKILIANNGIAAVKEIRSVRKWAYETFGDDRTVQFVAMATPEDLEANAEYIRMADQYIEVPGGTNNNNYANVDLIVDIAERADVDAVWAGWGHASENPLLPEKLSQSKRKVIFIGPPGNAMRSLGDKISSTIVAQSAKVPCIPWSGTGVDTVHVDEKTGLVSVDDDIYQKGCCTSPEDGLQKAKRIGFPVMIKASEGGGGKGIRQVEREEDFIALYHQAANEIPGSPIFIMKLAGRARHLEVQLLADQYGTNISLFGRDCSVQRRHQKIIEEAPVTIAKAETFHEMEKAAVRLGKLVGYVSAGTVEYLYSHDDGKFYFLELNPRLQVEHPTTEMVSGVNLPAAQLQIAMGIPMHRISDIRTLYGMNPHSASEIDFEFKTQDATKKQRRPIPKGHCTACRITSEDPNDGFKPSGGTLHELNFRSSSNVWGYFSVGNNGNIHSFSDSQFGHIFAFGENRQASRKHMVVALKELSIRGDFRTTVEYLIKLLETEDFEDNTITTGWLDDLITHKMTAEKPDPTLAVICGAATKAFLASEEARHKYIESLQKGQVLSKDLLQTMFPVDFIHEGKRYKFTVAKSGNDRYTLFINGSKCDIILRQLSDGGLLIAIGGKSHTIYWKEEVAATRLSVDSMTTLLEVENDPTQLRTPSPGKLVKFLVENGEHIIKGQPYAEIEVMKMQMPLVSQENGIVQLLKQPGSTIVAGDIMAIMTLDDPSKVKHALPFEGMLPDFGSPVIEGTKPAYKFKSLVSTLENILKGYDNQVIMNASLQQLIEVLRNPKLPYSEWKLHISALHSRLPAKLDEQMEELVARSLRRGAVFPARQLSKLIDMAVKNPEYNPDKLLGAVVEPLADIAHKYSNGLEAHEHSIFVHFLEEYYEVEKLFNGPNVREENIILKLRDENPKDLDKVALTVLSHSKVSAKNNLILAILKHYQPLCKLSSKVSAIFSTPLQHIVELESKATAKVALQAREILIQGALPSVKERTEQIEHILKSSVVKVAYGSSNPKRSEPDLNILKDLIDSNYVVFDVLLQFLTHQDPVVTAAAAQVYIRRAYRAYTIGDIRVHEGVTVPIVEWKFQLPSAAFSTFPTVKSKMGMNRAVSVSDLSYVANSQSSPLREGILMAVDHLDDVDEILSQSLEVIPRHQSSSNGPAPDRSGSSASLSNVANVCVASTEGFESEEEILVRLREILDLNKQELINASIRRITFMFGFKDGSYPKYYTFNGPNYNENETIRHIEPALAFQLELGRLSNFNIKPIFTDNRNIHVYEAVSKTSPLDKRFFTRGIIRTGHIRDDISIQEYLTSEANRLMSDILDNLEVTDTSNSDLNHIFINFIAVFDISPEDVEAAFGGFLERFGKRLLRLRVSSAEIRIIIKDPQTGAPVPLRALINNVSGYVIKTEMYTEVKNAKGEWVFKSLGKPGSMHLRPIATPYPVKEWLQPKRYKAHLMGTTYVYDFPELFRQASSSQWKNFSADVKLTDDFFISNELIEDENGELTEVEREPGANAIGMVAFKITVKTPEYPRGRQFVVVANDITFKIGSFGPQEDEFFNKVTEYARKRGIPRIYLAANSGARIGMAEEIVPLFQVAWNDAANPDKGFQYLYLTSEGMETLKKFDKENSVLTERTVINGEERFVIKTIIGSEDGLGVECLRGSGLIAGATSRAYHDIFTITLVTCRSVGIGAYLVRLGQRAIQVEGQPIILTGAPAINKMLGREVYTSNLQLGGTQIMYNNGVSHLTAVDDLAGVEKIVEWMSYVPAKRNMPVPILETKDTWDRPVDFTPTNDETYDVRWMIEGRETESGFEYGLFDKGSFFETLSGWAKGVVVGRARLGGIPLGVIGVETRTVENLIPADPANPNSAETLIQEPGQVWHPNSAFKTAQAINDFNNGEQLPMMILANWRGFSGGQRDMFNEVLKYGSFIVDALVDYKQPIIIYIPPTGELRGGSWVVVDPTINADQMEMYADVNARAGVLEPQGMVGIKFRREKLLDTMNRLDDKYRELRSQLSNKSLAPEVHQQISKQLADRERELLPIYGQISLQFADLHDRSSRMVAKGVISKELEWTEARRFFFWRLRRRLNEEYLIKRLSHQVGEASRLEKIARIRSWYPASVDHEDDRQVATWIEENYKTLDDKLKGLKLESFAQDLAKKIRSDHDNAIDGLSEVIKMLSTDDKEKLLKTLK

`COc1ccc(F)cc1[C@H](Cn1c(=O)n(C(C)(C)C(=O)O)c(=O)c2c(C)c(-n3nccn3)sc21)OC[C@@H](C)C#N` [Compound I-147] gave an IC50 (human (hACC2); Table 2a) of 5 to 10 nM, an IC50 (human (hACC2); Table 2b, additional results) of 5 to 10 nM and an MIC (C. albicans; [1]) of 2.1 to 4 mg/L (≈ 3.68 to 7.01 µM). For the same compound, the MIC (C. albicans; [2]) was 2.01 to 4 mg/L (≈ 3.52 to 7.01 µM), the MIC (C. krusei; [3]) was 2.1 to 4 mg/L (≈ 3.68 to 7.01 µM) and the MIC (C. krusei; [4]) was over 4.01 mg/L. For the same compound, the MIC (C. parapsilosis; [5]) was 2.1 to 4 mg/L (≈ 3.68 to 7.01 µM), the MIC (C. parapsilosis; [6]) was over 4.01 mg/L and the IC50 (fungal (fACC2); Table 2a) was 1 to 5 nM. The IC50 (fungal (fACC2); Table 2b, additional results) was 1 to 5 nM.
Compound `COc1ccc(F)cc1[C@H](Cn1c(=O)n(C(C)(C)C(=O)O)c(=O)c2c(C)c(-n3nccn3)sc21)OC[C@H](C)C#N` [Compound I-148] has an IC50 (human (hACC2); Table 2a) of 1 to 5 nM, an IC50 (human (hACC2); Table 2b, additional results) of 1 to 5 nM and an MIC (C. albicans; [1]) of 2.1 to 4 mg/L (≈ 3.68 to 7.01 µM). It also gave an MIC (C. albicans; [2]) of 2.01 to 4 mg/L (≈ 3.52 to 7.01 µM), an MIC (C. krusei; [3]) of 2.1 to 4 mg/L (≈ 3.68 to 7.01 µM) and an MIC (C. krusei; [4]) of over 4.01 mg/L. For the same compound, the MIC (C. parapsilosis; [5]) was 2.1 to 4 mg/L (≈ 3.68 to 7.01 µM), the MIC (C. parapsilosis; [6]) was over 4.01 mg/L and the IC50 (fungal (fACC2); Table 2a) was 1 to 5 nM. For the same compound, the IC50 (fungal (fACC2); Table 2b, additional results) was 1 to 5 nM.
`COc1ccc(F)cc1[C@H](Cn1c(=O)n(C(C)(C)C(=O)O)c(=O)c2c(C)c(-n3nccn3)sc21)OCC(C)(C)C#N` [Compound I-149, 2-[1-[(2R)-2-(2-cyano-2,2-dimethylethoxy)-2-(5-fluoro-2-methoxyphenyl)ethyl]-5-methyl-2,4-dioxo-6-(2H-1,2,3-triazol-2-yl)-1H,2H,3H,4H-thieno[2,3-d]pyrimidin-3-yl]-2-methylpropanoic acid] gave an IC50 (human (hACC2); Table 2a) of 1 to 5 nM, an IC50 (human (hACC2); Table 2b, additional results) of 1 to 5 nM and an MIC (C. albicans; [1]) of 2.1 to 4 mg/L (≈ 3.59 to 6.84 µM). For the same compound, the MIC (C. albicans; [2]) was 1.01 to 2 mg/L (≈ 1.73 to 3.42 µM), the MIC (C. krusei; [3]) was 2.1 to 4 mg/L (≈ 3.59 to 6.84 µM) and the MIC (C. krusei; [4]) was over 4.01 mg/L. It also gave an MIC (C. parapsilosis; [5]) of 2.1 to 4 mg/L (≈ 3.59 to 6.84 µM), an MIC (C. parapsilosis; [6]) of over 4.01 mg/L and an IC50 (fungal (fACC2); Table 2a) of 1 to 5 nM. The IC50 (fungal (fACC2); Table 2b, additional results) was 1 to 5 nM.
`COc1ccc(F)cc1[C@H](Cn1c(=O)n(C(C)(C)C(N)=O)c(=O)c2c(C)c(-n3nccn3)sc21)OC[C@@H](C)C#N` [Compound I-152] gave an IC50 (human (hACC2); Table 2a) of 1 to 5 nM, an IC50 (human (hACC2); Table 2b, additional results) of 1 to 5 nM and an MIC (C. albicans; [1]) of 2.1 to 4 mg/L (≈ 3.69 to 7.02 µM). For the same compound, the MIC (C. albicans; [2]) was 1.01 to 2 mg/L (≈ 1.77 to 3.51 µM), the MIC (C. krusei; [3]) was 2.1 to 4 mg/L (≈ 3.69 to 7.02 µM) and the MIC (C. krusei; [4]) was 2.01 to 4 mg/L (≈ 3.53 to 7.02 µM). It also gave an MIC (C. parapsilosis; [5]) of 2.1 to 4 mg/L (≈ 3.69 to 7.02 µM), an MIC (C. parapsilosis; [6]) of over 4.01 mg/L and an IC50 (fungal (fACC2); Table 2a) of 0.4 to 1 nM. It also gave an IC50 (fungal (fACC2); Table 2b, additional results) of 0.3 to 1 nM.
`COc1ccc(F)cc1[C@H](Cn1c(=O)n(C(C)(C)C(N)=O)c(=O)c2c(C)c(-n3nccn3)sc21)OC[C@H](C)C#N` [Compound I-153] showed an IC50 (human (hACC2); Table 2a) of 1 to 5 nM, an IC50 (human (hACC2); Table 2b, additional results) of 1 to 5 nM and an MIC (C. albicans; [1]) of 2.1 to 4 mg/L (≈ 3.69 to 7.02 µM). The MIC (C. albicans; [2]) was 1.01 to 2 mg/L (≈ 1.77 to 3.51 µM), the MIC (C. krusei; [3]) was 2.1 to 4 mg/L (≈ 3.69 to 7.02 µM) and the MIC (C. krusei; [4]) was 2.01 to 4 mg/L (≈ 3.53 to 7.02 µM). The MIC (C. parapsilosis; [5]) was 2.1 to 4 mg/L (≈ 3.69 to 7.02 µM), the MIC (C. parapsilosis; [6]) was over 4.01 mg/L and the IC50 (fungal (fACC2); Table 2a) was 0.4 to 1 nM. The IC50 (fungal (fACC2); Table 2b, additional results) was 0.3 to 1 nM.
`COc1ccc(F)cc1[C@H](Cn1c(=O)n(C(C)(C)C(N)=O)c(=O)c2c(C)c(-n3nccn3)sc21)OCC(C)(C)C#N` [Compound I-155] gave an IC50 (human (hACC2); Table 2a) of 5 to 10 nM, an IC50 (human (hACC2); Table 2b, additional results) of 5 to 10 nM and an MIC (C. albicans; [1]) of 0.25 to 1 mg/L (≈ 0.428 to 1.71 µM). It also gave an MIC (C. albicans; [2]) of 1.01 to 2 mg/L (≈ 1.73 to 3.43 µM), an MIC (C. krusei; [3]) of 1.1 to 2 mg/L (≈ 1.88 to 3.43 µM) and an MIC (C. krusei; [4]) of 2.01 to 4 mg/L (≈ 3.44 to 6.85 µM). For the same compound, the MIC (C. parapsilosis; [5]) was 2.1 to 4 mg/L (≈ 3.6 to 6.85 µM), the MIC (C. parapsilosis; [6]) was over 4.01 mg/L and the IC50 (fungal (fACC2); Table 2a) was 1 to 5 nM. It also gave an IC50 (fungal (fACC2); Table 2b, additional results) of 1 to 5 nM.
`COc1ccc(F)cc1[C@H](Cn1c(=O)n(C(C)(C)C(=O)O)c(=O)c2c(C)c(-n3nccn3)sc21)O[C@H]1CC[C@@H](C#N)CC1` [Compound I-156] was tested, and the IC50 (human (hACC2); Table 2a) was 10 to 40 nM, the IC50 (human (hACC2); Table 2b, additional results) was 10 to 40 nM and the MIC (C. albicans; [7]) was 1.01 to 2 mg/L (≈ 1.65 to 3.28 µM). For the same compound, the MIC (C. krusei; [8]) was 1.01 to 2 mg/L (≈ 1.65 to 3.28 µM), the MIC (C. parapsilosis; [9]) was 2.01 to 4 mg/L (≈ 3.29 to 6.55 µM) and the IC50 (fungal (fACC2); Table 2a) was 0.4 to 1 nM. For the same compound, the IC50 (fungal (fACC2); Table 2b, additional results) was 0.3 to 1 nM.
With `COc1ccc(F)cc1[C@H](Cn1c(=O)n(C(C)(C)C(=O)O)c(=O)c2c(C)c(-n3nccn3)sc21)O[C@H]1CC[C@H](C#N)CC1` [Compound I-157] the IC50 (human (hACC2); Table 2a) was 5 to 10 nM, the IC50 (human (hACC2); Table 2b, additional results) was 5 to 10 nM and the MIC (C. albicans; [2]) was 1.01 to 2 mg/L (≈ 1.65 to 3.28 µM). The MIC (C. krusei; [4]) was 1.01 to 2 mg/L (≈ 1.65 to 3.28 µM), the MIC (C. parapsilosis; [6]) was 2.01 to 4 mg/L (≈ 3.29 to 6.55 µM) and the IC50 (fungal (fACC2); Table 2a) was 1 to 5 nM. For the same compound, the IC50 (fungal (fACC2); Table 2b, additional results) was 1 to 5 nM.
Compound `COc1ccc(F)cc1[C@H](Cn1c(=O)n(C(C)(C)C(=O)NC(C)C)c(=O)c2c(C)c(-n3nccn3)sc21)O[C@H]1CC[C@@H](C#N)CC1` [Compound I-158] has an IC50 (human (hACC2); Table 2a) of 10 to 40 nM, an IC50 (human (hACC2); Table 2b, additional results) of 10 to 40 nM and an MIC (C. albicans; read-out: MIC, C. albicans ATCC 90028, Table 3a, 3 replicates, MIC recorded at 48 h) of 0.25 to 1 mg/L (≈ 0.384 to 1.53 µM). For the same compound, the MIC (C. albicans; [7]) was 0.25 to 1 mg/L (≈ 0.384 to 1.53 µM), the MIC (C. krusei; read-out: MIC, C. krusei ATCC 6258, Table 3a, 3 replicates, MIC recorded at 48 h) was 0.25 to 1 mg/L (≈ 0.384 to 1.53 µM) and the MIC (C. krusei; [8]) was 0.06 to 0.249 mg/L (≈ 0.0921 to 0.382 µM). The MIC (C. parapsilosis; read-out: MIC, C. parapsilosis ATCC 22019, Table 3a, 3 replicates, MIC recorded at 48 h) was 1.1 to 2 mg/L (≈ 1.69 to 3.07 µM), the MIC (C. parapsilosis; [9]) was 0.25 to 1 mg/L (≈ 0.384 to 1.53 µM) and the IC50 (fungal (fACC2); Table 2a) was 1 to 5 nM. For the same compound, the IC50 (fungal (fACC2); Table 2b, additional results) was 1 to 5 nM.
